Results published in patent US7488736B2, “Thienopyridinone compounds and methods of treatment” (Epix Delaware, Inc., priority 2004, dated 2009).
Counter-ions that a name gives are not always drawn.

Test system: rats
Assay: Spontaneous alternation task (cross maze), spatial working memory
Type: in vivo, rat
Design: number of arm entries: unit not given here
Conditions: 5 mg/kg i.p., 12 minutes on cross maze
Excerpt: Effect of Compound 23 on Spatial Working Memory in the Spontaneous Alternation Task Performance in Rats
Rats have an innate tendency to explore their environment in a systematic way. That is, if a rat chose a certain arm on the first trial in a maze, there is high probability that it will choose a different arm on the second trial. […] The performance in the spontaneous alternation test is highly dependent on spatial working memory capacity and rats with compromised “working memory” cannot retain information regarding places just visited in memory; therefore they show decreased spontaneous alternation. In this study, rats were tested for spontaneous alternation performance on the cross maze. Rats were allowed to explore the maze freely for 12 minutes. An alternation was recorded if a rat entered all four arms within a series of four consecutive entries. Chance performance is 22.5% with this measure.

`CC(C)n1c(=O)c(C(=O)NCCCN2CCCCC2)c([O-])c2ccsc21.[K+]` [Compound 23, 6,7-Dihydro-4-hydroxy-7-isopropyl-6-oxo-N-(3-(piperidin-1-yl)propyl)thieno[2,3-b]pyridine-5-carboxamide potassium salt] was tested. Which “number of arm entries” value did it give?
Its value is 30.

Same assay, conditions: 5 mg/kg i.p., 12 minutes on cross maze, chance performance 22.5%

With `CC(C)n1c(=O)c(C(=O)NCCCN2CCCCC2)c([O-])c2ccsc21.[K+]` [Compound 23, 6,7-Dihydro-4-hydroxy-7-isopropyl-6-oxo-N-(3-(piperidin-1-yl)propyl)thieno[2,3-b]pyridine-5-carboxamide potassium salt] as the compound, how does the mean alternation score read?
The mean alternation score was 58%±3%.

Test system: rats
Assay: Reversal of the scopolamine-induced deficit of Morris water maze performance
Type: in vivo, rat
Conditions: scopolamine 1 mg/kg i.p., compound at both 15 mg/kg and 30 mg/kg p.o.
Excerpt: Reversal of the Scopolamine-Induced Deficit of Water Maze Performance in Rats
The Morris Water Maze test is commonly used to study hippocampal-dependent spatial memory acquisition. It consists of a water pool with a hidden escape platform where the rats must learn the location of the platform using either contextual or local cues. […] Lesions of the hippocampus or its cholinergic input impair performance (e.g., by scopolamine) by inducing a performance deficit (latency or time to reach the platform location) in this test without affecting the speed of swimming or other general behaviors in the test animals.

For `CC(C)n1c(=O)c(C(=O)NCCCN2CCCCC2)c([O-])c2ccsc21.[K+]` [Compound 23, 6,7-Dihydro-4-hydroxy-7-isopropyl-6-oxo-N-(3-(piperidin-1-yl)propyl)thieno[2,3-b]pyridine-5-carboxamide potassium salt], which “decrease in path length to reach the platform” value is on record?
The value was 35-55%.

What about the “decrease in time to reach the platform” value of the same compound?
The value was 25-30%.

Same assay, conditions: scopolamine pretreatment 1 mg/kg i.p.

`CN1[C@@H]2C[C@@H](OC(=O)[C@H](CO)c3ccccc3)C[C@H]1[C@@H]1O[C@@H]12` [scopolamine, reference compound] was tested. Which “increase in latency and path length to find the platform compared with vehicle treated rats” value did it give?
Its value is about 5 fold.

Target: h 5-HT4e Receptor (Homo sapiens, UniProt Q13639)
Assay: h 5-HT4e receptor binding affinity assay
Conditions: not given

h 5-HT4e Receptor, sequence (Q13639 1-378 isoform Q13639-5): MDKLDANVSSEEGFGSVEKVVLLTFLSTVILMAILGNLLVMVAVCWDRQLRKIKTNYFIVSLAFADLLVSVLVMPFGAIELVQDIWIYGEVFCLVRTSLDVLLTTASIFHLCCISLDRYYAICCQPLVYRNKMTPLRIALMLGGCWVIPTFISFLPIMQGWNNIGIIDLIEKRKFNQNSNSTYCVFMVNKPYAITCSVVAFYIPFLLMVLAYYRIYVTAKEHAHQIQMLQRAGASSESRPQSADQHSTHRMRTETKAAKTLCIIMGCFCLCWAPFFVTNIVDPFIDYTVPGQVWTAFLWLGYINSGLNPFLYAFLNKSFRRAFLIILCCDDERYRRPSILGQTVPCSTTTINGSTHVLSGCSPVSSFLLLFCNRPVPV

Which Ki does the source give for `CC1CCN(CCCNC(=O)c2c(O)c3ccsc3n(C(C)C)c2=O)CC1` [Compound 8, 6,7-Dihydro-4-hydroxy-7-isopropyl-N-(3-(4-methylpiperidin-1-yl)propyl)-6-oxothieno[2,3-b]pyridine-5-carboxamide hydrochloride salt] here?
The Ki was 65 nM.

With `CCn1c(=O)c(C(=O)NCCCN2CCCCC2)c(O)c2ccsc21` [Compound 3, 6,7-Dihydro-7-ethyl-4-hydroxy-6-oxo-N-(3-(piperidin-1-yl)propyl)thieno[2,3-b]pyridine-5-carboxamide hydrochloride salt] as the compound, how does the Ki read?
Its Ki is 36 nM.

`CC(C)Cn1c(=O)c(C(=O)NCCCN2CCCCC2)c(O)c2ccsc21` [Compound 1, 6,7-Dihydro-4-hydroxy-7-isobutyl-6-oxo-N-(3-(piperidin-1-yl)propyl)thieno[2,3-b]pyridine-5-carboxamide hydrochloride salt] was tested. Which Ki did it give?
The Ki was 120 nM.

How did the Ki turn out when `CCCn1c(=O)c(C(=O)NCCCN2CCC(C)CC2)c(O)c2ccsc21` [Compound 2, 6,7-Dihydro-4-hydroxy-N-(3-(4-methylpiperidin-1-yl)propyl)-6-oxo-7-propylthieno[2,3-b]pyridine-5-carboxamide hydrochloride salt] was run?
The Ki was 160 nM.

With `COc1c(C(=O)NCCCN2CCCCC2)c(=O)n(C(C)C)c2sccc12` [Compound 16, 6,7-Dihydro-7-isopropyl-4-methoxy-6-oxo-N-(3-(piperidin-1-yl)propyl)thieno[2,3-b]pyridine-5-carboxamide] as the compound, how does the Ki read?
The Ki was 31 nM.

With `COC(=O)C1CCN(CCCNC(=O)c2c(O)c3ccsc3n(C(C)C)c2=O)CC1` [Compound 10, 6,7-Dihydro-4-hydroxy-7-isopropyl-6-oxo-N-(3-(4-(methoxycarbonyl)piperidin-1-yl)propyl)thieno[2,3-b]pyridine-5-carboxamide hydrochloride salt] as the compound, how does the Ki read?
The Ki was 40 nM.

With `CC(C)n1c(=O)c(C(=O)NCCCN2CCC(F)(F)CC2)c(O)c2ccsc21` [Compound 11, N-(3-(4,4-Difluoropiperidin-1-yl)propyl)-6,7-dihydro-4-hydroxy-7-isopropyl-6-oxothieno[2,3-b]pyridine-5-carboxamide hydrochloride salt] as the compound, how does the Ki read?
Its Ki is 220 nM.

Which Ki does the source give for `Cc1sc2c(c1C)c(O)c(C(=O)NCCCN1CCCCC1)c(=O)n2C(C)C` [Compound 14, 6,7-Dihydro-2,3-dimethyl-4-hydroxy-7-isopropyl-6-oxo-N-(3-(piperidin-1-yl)propyl)thieno-[2,3-b]pyridine-5-carboxamide hydrochloride salt] here?
The Ki was 140 nM.

With `CCC1CCN(CCCNC(=O)c2c(O)c3ccsc3n(CC)c2=O)CC1` [Compound 5, 6,7-Dihydro-7-ethyl-N-(3-(4-ethylpiperidin-1-yl)propyl)-4-hydroxy-6-oxothieno[2,3-b]pyridine-5-carboxamide hydrochloride salt] as the compound, how does the Ki read?
The Ki was 26 nM.

For `CCn1c(=O)c(C(=O)NCCCN2CCC(C)CC2)c(O)c2ccsc21` [Compound 4, 6,7-Dihydro-7-ethyl-4-hydroxy-N-(3-(4-methylpiperidin-1-yl)propyl)-6-oxothieno[2,3-b]pyridine-5-carboxamide hydrochloride salt], which Ki is on record?
The Ki was 20 nM.

How did the Ki turn out when `CC(C)n1c(=O)c(C(=O)NCCCN2CCC(C(F)(F)F)CC2)c(O)c2ccsc21` [Compound 9, 6,7-Dihydro-4-hydroxy-7-isopropyl-6-oxo-N-(3-(4-(trifluoromethyl)piperidin-1-yl)propyl)thieno[2,3-b]pyridine-5-carboxamide hydrochloride salt] was run?
The Ki was 50 nM.

For `CC(C)n1c(=O)c(C(=O)NCCCN2[C@H](C)CCC[C@@H]2C)c(O)c2ccsc21` [Compound 13, 6,7-Dihydro-N-(3-((2R,6S)-2,6-dimethylpiperidin-1-yl)propyl)-4-hydroxy-7-isopropyl-6-oxothieno[2,3-b]pyridine-5-carboxamide hydrochloride salt], which Ki is on record?
The Ki was 380 nM.

With `CC(C)n1c(=O)c(C(=O)NCCCN2CCC(C)(C)CC2)c(O)c2ccsc21` [Compound 12, 6,7-Dihydro-N-(3-(4,4-dimethylpiperidin-1-yl)propyl)-4-hydroxy-7-isopropyl-6-oxothieno[2,3-b]pyridine-5-carboxamide hydrochloride salt] as the compound, how does the Ki read?
Its Ki is 200 nM.

How did the Ki turn out when `CC(C)n1c(=O)c(C(=O)NCCCN2CCCC2)c(O)c2ccsc21` [Compound 6, 6,7-Dihydro-4-hydroxy-7-isopropyl-6-oxo-N-(3-(pyrrolidin-1-yl)propyl)thieno-[2,3-b]pyridine-5-carboxamide hydrochloride salt] was run?
Its Ki is 35 nM.
